# Data published in paper PMC10202811 (Nature Medicine, 2023).
# Like-named read-outs stand apart in the source and are kept apart here.
# Assay: Plasma pharmacokinetics of lorlatinib at steady state (LC-MS/MS, non-compartmental analysis)
# Format: in vivo, human
# Conditions: human, plasma, oral; for Cmax: read-out: Cmax; for Tmax: read-out: Tmax
# Description: Lorlatinib was isolated from human plasma by a liquid-iquid extraction procedure. […] A linear-log trapezoidal method was used [NT] A best-fit method was used to estimate terminal elimination and to extrapolate any plasma concentration versus time profiles to compute [NT].
# [1] = 60 mg/m2, Cohort A1, 60 mg/m2 per dose, C1D15, individual patient
# [2] = 60 mg/m2, Cycle 1 Day 1, Cohort A1, 60 mg/m2 per dose, individual patients
# [3] = 60 mg/m2, Cycle 1 Day 15, Cohort A1, 60 mg/m2 per dose, individual patients
# [4] = 75 mg/m2, Cohort A1, 75 mg/m2 per dose, C1D15, Geometric Mean, N 3
# [5] = 75 mg/m2, Cohort A1, 75 mg/m2 per dose, C1D15, Median, N 3
# [6] = 75 mg/m2, Cycle 1 Day 1, Cohort A1, 75 mg/m2 per dose, individual patients
# [7] = 95 mg/m2, Cohort A1, 95 mg/m2 per dose, C1D15, Geometric Mean, N 9
# [8] = 95 mg/m2, Cohort A1, 95 mg/m2 per dose, C1D15, Median, N 9
# [9] = 95 mg/m2, Cohort B2, 95 mg/m2 per dose, C1D15, Geometric Mean, N 2
# [10] = 95 mg/m2, Cohort B2, 95 mg/m2 per dose, C1D15, Median, N 2
# [11] = 95 mg/m2, Cohort B2, 95 mg/m2 per dose, C1D15, individual patient
# [12] = 95 mg/m2, Cycle 1 Day 1, Cohort A1, 95 mg/m2 per dose
# [13] = 95 mg/m2, Cycle 1 Day 1, Cohort B2, 95 mg/m2 per dose
# [14] = 95 mg/m2, Cycle 1 Day 1, Cohort A1, 95 mg/m2 per dose, individual patients
# [15] = 95 mg/m2, Cycle 1 Day 15, Cohort B2, 95 mg/m2 per dose
# [16] = 95 mg/m2, steady state, Cohort B2 (with topotecan/cyclophosphamide), 95 mg/m^2 QD, individual values
# [17] = 100 mg, Cohort A2, 100 mg per dose, C1D15, Geometric Mean, N 5
# [18] = 100 mg, Cohort A2, 100 mg per dose, C1D15, Median, N 5
# [19] = 100 mg, Cycle 1 Day 1, Cohort A2, 100 mg per dose, individual patients
# [20] = 150 mg per dose, Cycle 1 Day 1, Cohort A2, 150 mg per dose
# [21] = 150 mg per dose, Cycle 1 Day 15, Cohort A2, 150 mg per dose
# [22] = 150 mg, Cohort A2, 150 mg per dose, C1D15, Geometric Mean, N 10
# [23] = 150 mg, Cohort A2, 150 mg per dose, C1D15, Median, N 10
# [24] = 150 mg, Cycle 1 Day 1, Cohort A2, 150 mg per dose, individual patients
# [25] = 150 mg, Cycle 1 Day 15, Cohort A2, 150 mg per dose, individual patients
structure (smiles),measurement,setting,value
"C[C@H]1Oc2cc(cnc2N)-c2c(nn(C)c2C#N)CN(C)C(=O)c2ccc(F)cc21 [Lorlatinib, (10R)-7-amino-12-fluoro-2,10,16-trimethyl-15-oxo-10,15,16,17-tetrahydro-2H-8,4-(metheno)pyrazolo[4,3-h][2,5,11]-benzoxadiazacyclotetradecine-3-carbonitrile]",Cmax,[1],623 ng/mL
same,Tmax,[1],2 h
same,AUC(0-t),[2],3960 ng·h/mL
same,MRT last,[2],6.96 h
same,Cmax,[2],761 ng/mL
same,Tmax,[2],1 h
same,AUC(0-t),[3],4140 ng·h/mL
same,AUC(0-inf),"60 mg/m2, Cycle 1 Day 15, Cohort A1, 60 mg/m2 per dose, individual patients, read-out: AUCINF_obs",5050 ng·h/mL
same,AUC(0-inf),"60 mg/m2, Cycle 1 Day 15, Cohort A1, 60 mg/m2 per dose, individual patients, read-out: AUCINF_pred",5040 ng·h/mL
same,AUC,"60 mg/m2, Cycle 1 Day 15, Cohort A1, 60 mg/m2 per dose, individual patients, read-out: AUC_TAU",4140 ng·h/mL
same,AUC,"60 mg/m2, Cycle 1 Day 15, Cohort A1, 60 mg/m2 per dose, individual patients, read-out: AUCall",4140 ng·h/mL
same,Cmax,[3],623 ng/mL
same,MRT inf,"60 mg/m2, Cycle 1 Day 15, Cohort A1, 60 mg/m2 per dose, individual patients, read-out: MRTINF_obs",13 h
same,MRT inf,"60 mg/m2, Cycle 1 Day 15, Cohort A1, 60 mg/m2 per dose, individual patients, read-out: MRTINF_pred",12.9 h
same,Tmax,[3],2 h
same,AUC,"60 mg/m2, steady state, Cohort A1, 60 mg/m^2 QD, (CV), read-out: AUCtau",3930 ng·h/mL
same,Cmax,"60 mg/m2, steady state, Cohort A1, 60 mg/m^2 QD, (CV)",492 ng/mL
same,Tmax,"60 mg/m2, steady state, Cohort A1, 60 mg/m^2 QD",2 h
same,AUC,"75 mg/m2, Cohort A1, 75 mg/m2 per dose, C1D15, Geometric Mean, N 3, read-out: AUC_TAU",4150 ng·h/mL
same,Cmax,[4],645 ng/mL
same,Tmax,[4],2.29 h
same,AUC,"75 mg/m2, Cohort A1, 75 mg/m2 per dose, C1D15, Median, N 3, read-out: AUC_TAU",4020 ng·h/mL
same,Cmax,[5],659 ng/mL
same,Tmax,[5],2 h
same,Cmax,"75 mg/m2, Cohort A1, 75 mg/m2 per dose, C1D15, individual patient",659 ng/mL
same,AUC(0-t),[6],6740 ng·h/mL
same,MRT last,[6],7.77 h
same,AUC,"75 mg/m2, Cycle 1 Day 1, Cohort A1, 75 mg/m2 per dose, individual patients, read-out: AUCall",6740 ng·h/mL
same,Cmax,[6],961 ng/mL
same,Tmax,[6],1 h
same,AUC(0-inf),"75 mg/m2, Cycle 1 Day 15, Cohort A1, 75 mg/m2 per dose, individual patients, read-out: AUCINF_obs",4500 ng·h/mL
same,AUC(0-inf),"75 mg/m2, Cycle 1 Day 15, Cohort A1, 75 mg/m2 per dose, individual patients, read-out: AUCINF_pred",4490 ng·h/mL
same,Cmax,"75 mg/m2, Cycle 1 Day 15, Cohort A1, 75 mg/m2 per dose, individual patients",659 ng/mL
same,MRT inf,"75 mg/m2, Cycle 1 Day 15, Cohort A1, 75 mg/m2 per dose, individual patients, read-out: MRTINF_obs",10.3 h
same,MRT inf,"75 mg/m2, Cycle 1 Day 15, Cohort A1, 75 mg/m2 per dose, individual patients, read-out: MRTINF_pred",10.3 h
same,AUC,"75 mg/m2, steady state, Cohort A1, 75 mg/m^2 QD, (CV), read-out: AUCtau",4160 ng·h/mL
same,Cmax,"75 mg/m2, steady state, Cohort A1, 75 mg/m^2 QD, (CV)",645 ng/mL
same,Tmax,"75 mg/m2, steady state, Cohort A1, 75 mg/m^2 QD",2 h
same,AUC,"95 mg/m2, Cohort A1, 95 mg/m2 per dose, C1D15, Geometric Mean, N 9, read-out: AUC_TAU",7470 ng·h/mL
same,Cmax,[7],1020 ng/mL
same,Tmax,[7],1.47 h
same,AUC,"95 mg/m2, Cohort A1, 95 mg/m2 per dose, C1D15, Median, N 9, read-out: AUC_TAU",6910 ng·h/mL
same,Cmax,[8],1100 ng/mL
same,Tmax,[8],1 h
same,AUC,"95 mg/m2, Cohort B2, 95 mg/m2 per dose, C1D15, Geometric Mean, N 2, read-out: AUC_TAU",6690 ng·h/mL
same,Cmax,[9],817 ng/mL
same,Tmax,[9],2.83 h
same,AUC,"95 mg/m2, Cohort B2, 95 mg/m2 per dose, C1D15, Median, N 2, read-out: AUC_TAU",6810 ng·h/mL
same,Cmax,[10],824 ng/mL
same,Tmax,[10],3 h
same,AUC,"95 mg/m2, Cohort B2, 95 mg/m2 per dose, C1D15, individual patient, read-out: AUC_TAU",8100 ng·h/mL
same,Cmax,[11],926 ng/mL
same,Tmax,[11],4 h
same,MRT last,[12],7.38 h
same,Tmax,[12],1 h
same,Cmax,[13],914 ng/mL
same,Tmax,[13],2 h
same,MRT last,[14],9.06 h
same,Tmax,[14],2 h
same,Tmax,"95 mg/m2, Cycle 1 Day 15, Cohort A1, 95 mg/m2 per dose",1 h
same,AUC(0-t),[15],8100 ng·h/mL
same,AUC(0-inf),"95 mg/m2, Cycle 1 Day 15, Cohort B2, 95 mg/m2 per dose, read-out: AUCINF_obs",5730 ng·h/mL
same,AUC(0-inf),"95 mg/m2, Cycle 1 Day 15, Cohort B2, 95 mg/m2 per dose, read-out: AUCINF_pred",5730 ng·h/mL
same,AUC,"95 mg/m2, Cycle 1 Day 15, Cohort B2, 95 mg/m2 per dose, read-out: AUC_TAU",8100 ng·h/mL
same,AUC,"95 mg/m2, Cycle 1 Day 15, Cohort B2, 95 mg/m2 per dose, read-out: AUCall",8100 ng·h/mL
same,Cmax,[15],926 ng/mL
same,MRT inf,"95 mg/m2, Cycle 1 Day 15, Cohort B2, 95 mg/m2 per dose, read-out: MRTINF_obs",7.79 h
same,MRT inf,"95 mg/m2, Cycle 1 Day 15, Cohort B2, 95 mg/m2 per dose, read-out: MRTINF_pred",7.77 h
same,Tmax,[15],4 h
same,MRT inf,"95 mg/m2, Cycle 1 Day 15, Cohort A1, 95 mg/m2 per dose, individual patients, read-out: MRTINF_obs",20.6 h
same,MRT inf,"95 mg/m2, Cycle 1 Day 15, Cohort A1, 95 mg/m2 per dose, individual patients, read-out: MRTINF_pred",20.5 h
same,AUC,"95 mg/m2, steady state, Cohort A1, 95 mg/m^2 QD, (CV), read-out: AUCtau",7470 ng·h/mL
same,Cmax,"95 mg/m2, steady state, Cohort A1, 95 mg/m^2 QD, (CV)",1020 ng/mL
same,Tmax,"95 mg/m2, steady state, Cohort A1, 95 mg/m^2 QD",1 h
same,AUC,"95 mg/m2, steady state, Cohort B2 (with topotecan/cyclophosphamide), 95 mg/m^2 QD, individual values, read-out: AUCtau",8100 ng·h/mL
same,Cmax,[16],926 ng/mL
same,Tmax,[16],4 h
same,AUC,"100 mg, Cohort A2, 100 mg per dose, C1D15, Geometric Mean, N 5, read-out: AUC_TAU",6790 ng·h/mL
same,Cmax,[17],789 ng/mL
same,Tmax,[17],1.74 h
same,AUC,"100 mg, Cohort A2, 100 mg per dose, C1D15, Median, N 5, read-out: AUC_TAU",6130 ng·h/mL
same,Cmax,[18],569 ng/mL
same,Tmax,[18],2 h
same,MRT last,[19],12.4 h
same,Tmax,[19],2 h
same,MRT inf,"100 mg, Cycle 1 Day 15, Cohort A2, 100 mg per dose, individual patients, read-out: MRTINF_obs",23.8 h
same,MRT inf,"100 mg, Cycle 1 Day 15, Cohort A2, 100 mg per dose, individual patients, read-out: MRTINF_pred",23.7 h
same,AUC,"100 mg, steady state, Cohort A2, 100 mg QD, (CV), read-out: AUCtau",6790 ng·h/mL
same,Cmax,"100 mg, steady state, Cohort A2, 100 mg QD, (CV)",789 ng/mL
same,Tmax,"100 mg, steady state, Cohort A2, 100 mg QD",2 h
same,AUC(0-t),[20],8990 ng·h/mL
same,MRT last,[20],9.33 h
same,AUC,"150 mg per dose, Cycle 1 Day 1, Cohort A2, 150 mg per dose, read-out: AUCall",8990 ng·h/mL
same,Tmax,[20],1 h
same,AUC(0-t),[21],5000 ng·h/mL
same,AUC,"150 mg per dose, Cycle 1 Day 15, Cohort A2, 150 mg per dose, read-out: AUCall",5000 ng·h/mL
same,Tmax,[21],2 h
same,AUC,"150 mg, Cohort A2, 150 mg per dose, C1D15, Geometric Mean, N 10, read-out: AUC_TAU",6680 ng·h/mL
same,Cmax,[22],741 ng/mL
same,Tmax,[22],1.41 h
same,AUC,"150 mg, Cohort A2, 150 mg per dose, C1D15, Median, N 10, read-out: AUC_TAU",6890 ng·h/mL
same,Cmax,[23],710 ng/mL
same,Tmax,[23],1 h
same,AUC,"150 mg, Cohort A2, 150 mg per dose, C1D15, individual patient, read-out: AUC_TAU",5920 ng·h/mL
same,AUC(0-t),[24],5920 ng·h/mL
same,MRT last,[24],8.35 h
same,AUC,"150 mg, Cycle 1 Day 1, Cohort A2, 150 mg per dose, individual patients, read-out: AUCall",5920 ng·h/mL
same,Cmax,[24],564 ng/mL
same,Tmax,[24],1 h
same,AUC,"150 mg, Cycle 1 Day 15, Cohort A2, 150 mg per dose, read-out: AUC_TAU",5000 ng·h/mL
same,AUC(0-t),[25],7380 ng·h/mL
same,AUC(0-inf),"150 mg, Cycle 1 Day 15, Cohort A2, 150 mg per dose, individual patients, read-out: AUCINF_pred",8770 ng·h/mL
same,AUC,"150 mg, Cycle 1 Day 15, Cohort A2, 150 mg per dose, individual patients, read-out: AUC_TAU",7380 ng·h/mL
same,AUC,"150 mg, Cycle 1 Day 15, Cohort A2, 150 mg per dose, individual patients, read-out: AUCall",7380 ng·h/mL
same,concentration at 24 h,"150 mg, Cycle 1 Day 15, Cohort A2, 150 mg per dose, individual patients, read-out: Clast_pred",128 ng/mL
same,Cmax,[25],658 ng/mL
same,MRT inf,"150 mg, Cycle 1 Day 15, Cohort A2, 150 mg per dose, individual patients, read-out: MRTINF_obs",16.8 h
same,MRT inf,"150 mg, Cycle 1 Day 15, Cohort A2, 150 mg per dose, individual patients, read-out: MRTINF_pred",16.7 h
same,AUC,"150 mg, steady state, Cohort A2, 150 mg QD, (CV), read-out: AUCtau",6680 ng·h/mL
same,Cmax,"150 mg, steady state, Cohort A2, 150 mg QD, (CV)",741 ng/mL
same,Tmax,"150 mg, steady state, Cohort A2, 150 mg QD",1 h
